Consider three compounds from paper PMC467089, “Click estradiol dimers with novel aromatic bridging units: synthesis and anticancer evaluation” (Journal of Enzyme Inhibition and Medicinal Chemistry, 2024).

SMILES strings stand for the structures.

For one data set, the target named is T1, porcine brain tubulin (Sus scrofa, UniProt P02550+P02554).
T1 construct: purchased Cytoskeleton, Denver, CO; host or cells: porcine brain (tissue-purified)
Kind of data set: Tubulin polymerisation assay. Format: biochemical. As to conditions: 10 μmol/L, Vmax relative to DMSO. Here is the method:
Tubulin polymerisation assay kit (Cytoskeleton, Denver, CO) was used according to the manufacturer’s instructions. Polymerisation of porcine brain tubulin (>99% purity) was measured using an EnVision Multilabel Plate Reader (PerkinElmer, Waltham, MA) at 37 °C, in the presence of either 10 μmol/L test compounds or DMSO. Maximum polymerisation velocity (Vmax) was calculated from the polymerisation curves. Data visualisation was performed in OriginPro 2018b (b9.5.5.409) software (OriginLab Corporation, Northampton, MA)[10].

The test system of data set [1] is CEM-DNR (daunorubicin resistant variant of CCRF-CEM). Kind of data set: MTS cytotoxicity assay, CEM-DNR. Format: cell-based, human. As to conditions: Homo sapiens, CEM-DNR; MTS assay, 72-h incubation, mean ± SD of 3 independent experiments; read-out: IC50 cytotoxic activity CEM-DNR. The procedure:
(§1) The p53 deficient variant, HCT116p53−/−, was purchased from Horizon Discovery (Cambridge, UK). The daunorubicin-resistant CCRF-CEM cell line CEM-DNR bulk and paclitaxel-resistant K562-TAX sublines were developed in-house by exposing parental cell lines to escalating concentrations of daunorubicin and paclitaxel, respectively. Cells were maintained in the recommended culture medium (Sigma-Aldrich, St. Louis, MO) supplemented with 10% foetal calf serum, 100 U/mL penicillin, and 100 μg/mL streptomycin. The HUVEC line was obtained from PromoCell (Heidelberg, Germany). The cells were cultured in endothelial cell growth medium with SupplementMix for endothelial cells (PromoCell, Heidelberg, Germany). The incubation conditions were a humidified atmosphere of 95% air and 5% CO2 at 37 °C[10]. Cells were seeded in 384-well plates and after overnight incubation treated with compounds. All tested compounds were dissolved in 100% DMSO, and fourfold serial dilutions were performed using an Echo550 liquid handler (Labcyte, San Jose, CA). The experiments were performed in technical duplicates and three biological replicates. Cells were incubated with compounds for 72 h and thereafter 5 μL of MTS reagent was added to each well.

Data set [2] deals with K562-TAX (paclitaxel-resistant variant of K562). Kind of data set: MTS cytotoxicity assay, K562-TAX. Format: cell-based, human. The settings on record: Homo sapiens, K562-Tax; MTS assay, 72-h incubation, mean ± SD of 3 independent experiments; read-out: IC50 cytotoxic activity K562-TAX. Here is the method:
as §1

Data set [3] in a line: MTS cytotoxicity assay, BJ. Format: cell-based. The settings on record: human, BJ cells (non-tumour skin fibroblasts); MTS assay, 72-h incubation, mean ± SD of 3 independent experiments; read-out: IC50 cytotoxic activity BJ. The procedure: as §1
The subject of data set [4] is HCT116p53−/− (p53 gene null variant of HCT116). Kind of data set: MTS cytotoxicity assay, HCT116p53−/−. It is filed as cell-based. The settings on record: Homo sapiens, HCT-116; MTS assay, 72-h incubation, mean ± SD of 3 independent experiments; read-out: IC50 cytotoxic activity HCT116p53-. Here is the method:
as §1

The subject of data set [5] is HCT116 (colorectal adenocarcinoma). Put plainly: MTS cytotoxicity assay, HCT116. As to conditions: Homo sapiens, HCT-116; MTS assay, 72-h incubation, mean ± SD of 3 independent experiments; read-out: IC50 cytotoxic activity HCT116. Format: cell-based. The procedure:
as §1

Data set [6] has as its system K562 (chronic myelogenous leukaemia). Put plainly: MTS cytotoxicity assay, K562. Format: cell-based. The settings on record: Homo sapiens, K562; MTS assay, 72-h incubation, mean ± SD of 3 independent experiments; read-out: IC50 cytotoxic activity K562. Here is the method:
as §1

In a further data set the test system is U2OS (osteosarcoma). Kind of data set: MTS cytotoxicity assay, U2OS. The settings on record: Homo sapiens, U2OS; MTS assay, 72-h incubation, mean ± SD of 3 independent experiments; read-out: IC50 cytotoxic activity U2OS. Format: cell-based, human. The procedure: as §1
A short description of data set [7]: MTS cytotoxicity assay, MRC-5. Format: cell-based. The settings on record: human, MRC-5 cells (non-tumour fibroblasts); MTS assay, 72-h incubation, mean ± SD of 3 independent experiments; read-out: IC50 cytotoxic activity MRC-5. The procedure:
as §1

In data set [8] the test system is A549 (lung adenocarcinoma). Kind of data set: MTS cytotoxicity assay, A549. It is filed as cell-based, human. As to conditions: Homo sapiens, A549; MTS assay, 72-h incubation, mean ± SD of 3 independent experiments; read-out: IC50 cytotoxic activity A549. The procedure: as §1

T1 sequence (P02550 whole entry): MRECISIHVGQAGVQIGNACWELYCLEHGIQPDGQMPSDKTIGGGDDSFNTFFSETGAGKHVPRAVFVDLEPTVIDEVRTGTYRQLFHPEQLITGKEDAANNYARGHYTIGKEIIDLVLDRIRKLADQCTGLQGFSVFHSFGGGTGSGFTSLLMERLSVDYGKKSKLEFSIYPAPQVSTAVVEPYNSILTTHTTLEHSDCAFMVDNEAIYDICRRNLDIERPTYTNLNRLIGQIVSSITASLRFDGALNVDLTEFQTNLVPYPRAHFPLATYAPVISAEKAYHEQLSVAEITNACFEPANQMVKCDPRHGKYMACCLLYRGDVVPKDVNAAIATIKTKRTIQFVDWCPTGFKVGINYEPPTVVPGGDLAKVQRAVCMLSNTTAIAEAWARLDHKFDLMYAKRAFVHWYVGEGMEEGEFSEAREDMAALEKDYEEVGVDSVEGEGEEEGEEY
T1 sequence (P02554 whole entry): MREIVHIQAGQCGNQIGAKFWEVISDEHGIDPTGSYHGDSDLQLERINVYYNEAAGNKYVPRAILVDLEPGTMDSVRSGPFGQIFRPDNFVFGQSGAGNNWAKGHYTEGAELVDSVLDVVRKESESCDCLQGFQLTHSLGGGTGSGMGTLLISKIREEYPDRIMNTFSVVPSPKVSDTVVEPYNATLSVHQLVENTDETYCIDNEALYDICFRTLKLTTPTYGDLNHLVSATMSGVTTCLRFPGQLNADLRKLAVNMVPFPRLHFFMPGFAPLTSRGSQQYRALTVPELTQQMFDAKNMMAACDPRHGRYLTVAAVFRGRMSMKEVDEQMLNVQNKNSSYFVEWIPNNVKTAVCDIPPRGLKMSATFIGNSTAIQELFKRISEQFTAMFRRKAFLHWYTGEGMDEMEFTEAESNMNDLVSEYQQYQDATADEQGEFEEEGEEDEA

Turning to `Cc1cc(C)c(Cn2cc([C@]3(O)CC[C@H]4[C@@H]5CCc6cc(O)ccc6[C@H]5CC[C@@]43C)nn2)c(C)c1Cn1cc([C@]2(O)CC[C@H]3[C@@H]4CCc5cc(O)ccc5[C@H]4CC[C@@]32C)nn1` [ED10, 17,17′-[(2,4,6-Trimethyl-1,3-phenylene)bis(methylene-1H-1,2,3-triazole-1,4-diyl)]di[estra-1,3,5(10)-triene-3,17β-diol]], the “inhibitory activity against tubulin polymerisation (in words)” value on porcine brain tubulin was “inactive”.
On to `C[C@]12CC[C@@H]3c4ccc(O)cc4CC[C@H]3[C@@H]1CC[C@@]2(O)c1cn(Cc2c(Cl)c(Cl)c(Cl)c(Cn3cc([C@]4(O)CC[C@H]5[C@@H]6CCc7cc(O)ccc7[C@H]6CC[C@@]54C)nn3)c2Cl)nn1` [ED11, 17,17′-[(2,4,5,6-Tetrachloro-1,3-phenylene)bis(methylene-1H-1,2,3-triazole-1,4-diyl)]di[estra-1,3,5(10)-triene-3,17β-diol]], for which the “inhibitory activity against tubulin polymerisation (in words)” value at porcine brain tubulin is “inactive”.
Turning to `C#C[C@]1(O)CC[C@H]2[C@@H]3CCc4cc(O)ccc4[C@H]3CC[C@@]21C` [EE, 17α-ethinylestradiol, reference compound], the IC50 in data set [1] was determined as 23 ± 4.7 µM; in data set [2] it was 15.6 ± 6.25 µM; in data set [4] it was 33.6 ± 11.9 µM; in [5], 30 ± 6.89 µM; in data set [6], 8.72 ± 2.17 µM; in the data set with U2OS (osteosarcoma) it was 22.4 ± 5.65 µM. In data set [8], the IC50 turned out to be 31.5 ± 4.16 µM. The IC50 at 72 h in [3] and in data set [7] was more than 50 µM each time.
